The values that follow are results of earlier work, collected in patent publication US20140228595A1, “PROCESSES FOR PRODUCING HEXANEDIOL (HDO), HEXAMETHYLENEDIAMINE (HMD), ADIPONITRILE (ADN), ADIPAMIDE (ADM) AND DERIVATIVES THEREOF” (BioAmber S.A.S., priority 2011, published 2014).

SMILES strings stand for the structures.

For the compound `O=C(O)CCCCC(=O)O` [AA, adipic acid], the pKa1 (Table 1, Run 1) is recorded as 4.43. The “pKa of the second acid group of AA” value (second acid group) is reported as 5.1.
